# Data reported in patent US9260391B2, “Hypoglycemic dihydropyridones” (The Trustees of Columbia University in the City of New York, priority 2008, dated 2016).
# “Also recorded” adds a separate entry of the source.
# Tests used:
# [1] = test system: human islets; test: Glucose-stimulated insulin secretion of purified human cadaveric islets ex vivo; format: cell-based; conditions: high glucose media; ELISA
# Experimental: The islet tissue used in these studies was obtained with institutional review board approval. Pancreas digestion and islet isolation were performed using minor modifications of the Edmonton purification protocol. (Shapiro, […] al. “Islet […] in seven patients with type I diabetes mellitus using a glucocortoid-free immunosuppressive regimen.” New England Journal of Medicine 343(4):230-8, (2000)) The determination of islet cell mass, viability, and purity were also performed. Purified islets were cultured in CMRL 1066 culture media with 10% fetal bovine serum at 37° C. in humidified air (5% CO2) for 18 to 24 hours. The human islet insulin secretory response was performed according to a procedure described by the Edmonton group. (Id.) Briefly, after an overnight culture, islets were incubated with either low or high concentrations of glucose for 2 hours at 37° C. and 5% CO2. The supernatant was collected for insulin measurement. Insulin concentrations in these experiments were analyzed with a human insulin enzyme-linked immunosorbent assay (ELISA) kit (ALPCO Insulin ELISA kit, Windham, N.H.). In some experiments TBZ, DTBZ or epinephrine was added to the cultures before glucose stimulation.
# [2] = biological target: T1, VMAT2 in beta cells (Rattus norvegicus, UniProt Q01827); test: PET study: displacement of [11C]DTBZ in the pancreas by cold analog; format: in vivo; conditions: cold compound 2 mg/kg injected 30 min after radioligand; relative to DTBZ
# T1 construct: from tissue; host or cells: pancreas (beta cells) of living Lewis rats
# T1 sequence (Q01827 whole entry): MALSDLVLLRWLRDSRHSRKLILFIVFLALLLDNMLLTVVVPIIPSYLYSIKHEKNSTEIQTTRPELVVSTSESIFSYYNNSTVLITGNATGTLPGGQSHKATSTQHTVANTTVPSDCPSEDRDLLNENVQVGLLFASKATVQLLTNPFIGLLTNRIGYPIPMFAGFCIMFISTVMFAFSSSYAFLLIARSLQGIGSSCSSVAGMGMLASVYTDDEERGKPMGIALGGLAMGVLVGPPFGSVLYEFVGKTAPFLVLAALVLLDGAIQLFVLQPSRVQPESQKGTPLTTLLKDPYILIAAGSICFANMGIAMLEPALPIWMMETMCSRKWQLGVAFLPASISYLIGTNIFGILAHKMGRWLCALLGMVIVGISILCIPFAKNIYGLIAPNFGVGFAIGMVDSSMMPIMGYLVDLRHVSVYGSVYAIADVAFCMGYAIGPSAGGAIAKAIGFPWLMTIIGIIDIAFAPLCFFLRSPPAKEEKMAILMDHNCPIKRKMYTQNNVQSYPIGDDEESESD
# Experimental: PET scans were performed on anesthetized 12-14 week old Lewis male rats injected with radioligand [^11C]DTBZ (0 min, 0.5-1.0 μCi/gm body weight, specific activity >[…]) and cold compound 8 (HG-3) (30 mins, 2 mg/kg). The fraction of radioligand in the pancreas relative to the total amount injected was calculated and plotted versus time after injection. Error bars indicate SEM (n=3).
# To test binding to VMAT2 in beta cells, PET scans were performed on 12-14 week old Lewis Male rats. Prior to imaging, the animals were anesthetized by isoflurane inhalation. After a transmission scan of the area of interest had been acquired (used to perform attenuation correction of the emission data), the radioligand [11C]DTBZ was administered (0.5-1.0 μCi/gm) in saline as bolus injection via the penile vein. PET scans of the animals were acquired dynamically to 90 min post injection on a Concorde microPET-R4 (CTI Molecular Imaging, Knoxville, Tenn., USA). The scanner provided a 100×80 mm field of view with a reconstructed resolution of 2.25 mm in the central 40 mm of the field of view. At thirty minutes post injection of [11C]DTBZ, the animals received a second injection via the penile vein of cold analog. […]
# [3] = test system: Lewis rats; test: IPGTT of analogs HG-1 to HG-11, compounds given orally (FIG. 15); format: in vivo, rat; conditions: 2 mg/kg orally
# Experimental: FIG. 15 is a bar graph showing the results of testing various analogs HG-1 to HG-11 in IPGTT glucose tolerance tests in rats. Results for TBZ, emetine, and olanzapine are also shown. Lewis rats fasted for 6 hours were administered the compounds orally (30 min, 2 mg/kg) followed by intraperitoneal glucose injection (0 min, […]), and plasma glucose levels were monitored for 120 mins. Results are presented as AUC percentage of the vehicle. Error bars indicate SEM (n=5).
# Racemic HG-2 and its diastereoisomer HG-1 were evaluated for their ability to improve glucose tolerance by performing intraperitoneal glucose tolerance tests (IPGTT) in rats. IPGTT testing is described above. See also Murthy, R., et al., Eur. J. Nucl. Med. Mol. Imaging, 2008, 35(4), 790-797.
# [4] = biological target: T2, dipeptidyl peptidase IV (DDP-IV) (Homo sapiens, UniProt P27487); test: Effect on dipeptidyl peptidase IV in vitro (BPS Bioscience assays); format: biochemical; conditions: concentrations up to 10 μM; data not shown
# T2 construct: purchased BPS Bioscience, Inc. (San Diego, Calif.)
# T2 sequence (P27487 whole entry): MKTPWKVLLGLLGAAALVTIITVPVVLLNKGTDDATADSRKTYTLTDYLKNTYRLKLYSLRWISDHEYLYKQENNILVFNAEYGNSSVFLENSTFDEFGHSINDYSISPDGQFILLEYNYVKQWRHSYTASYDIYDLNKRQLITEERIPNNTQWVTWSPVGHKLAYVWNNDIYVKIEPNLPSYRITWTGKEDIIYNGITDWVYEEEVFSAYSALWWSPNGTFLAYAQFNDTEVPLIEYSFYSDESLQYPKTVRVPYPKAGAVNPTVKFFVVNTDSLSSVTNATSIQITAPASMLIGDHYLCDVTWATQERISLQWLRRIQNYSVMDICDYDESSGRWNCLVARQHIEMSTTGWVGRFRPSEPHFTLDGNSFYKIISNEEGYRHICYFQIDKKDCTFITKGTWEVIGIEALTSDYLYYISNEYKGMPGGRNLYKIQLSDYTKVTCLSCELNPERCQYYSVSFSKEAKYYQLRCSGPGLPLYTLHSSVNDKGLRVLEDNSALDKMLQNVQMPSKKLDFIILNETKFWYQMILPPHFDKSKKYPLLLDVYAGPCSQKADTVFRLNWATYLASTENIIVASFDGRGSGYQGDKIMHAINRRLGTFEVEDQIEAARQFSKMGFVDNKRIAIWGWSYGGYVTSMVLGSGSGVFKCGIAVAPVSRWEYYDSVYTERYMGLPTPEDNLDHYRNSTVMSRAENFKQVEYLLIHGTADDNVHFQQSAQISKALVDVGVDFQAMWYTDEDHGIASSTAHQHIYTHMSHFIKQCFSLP
# Experimental: The effect of HG-3 on DDP-IV was determined by assays provided by BPS Bioscience, Inc. (San Diego, Calif.).
Structure (SMILES),insulin secretion by human islets after stimulation by high concentrations of glucose [1],displacement of [11C]DTBZ in the endocrine pancreas / binding to VMAT2 [2],"decrease of the AUC IPGTT (area under the blood glucose concentration-time curve) ([3]; 30 min before i.p. glucose, relative to vehicle, n=5)",hypoglycemic activity in IPGTT compared with TBZ / HG-3 ([3]; FIG. 15),effect on DDP-IV in vitro [4]
"COc1cc2c(cc1OC)[C@@H]1C[C@H](O)[C@@H](CC(C)C)CN1CC2 [DTBZ, dihydrotetrabenazine]",significantly enhanced the amount of insulin secreted; also recorded: enhances glucose-stimulated insulin secretion,–,–,–,–
COc1ccc(C2CC(O)C(CC(C)C)C(=O)N2)cc1OC (stereo not shown) [HG-4],–,weak binding,–,–,–
"COc1ccc(C2CC(OCC(C)C)=CC(=O)N2)cc1OC (stereo not shown) [HG-3, 6-(3,4-dimethoxyphenyl)-4-isobutoxy-5,6-dihydropyridin-2(1H)-one]",–,did not significantly displace,45%,potent hypoglycemic effect; also recorded: significant decrease in blood glucose levels as compared to TBZ,negative
"CNC[C@H](O)c1ccc(O)c(O)c1 [epinephrine, L-epinephrine bitartrate]",inhibited secretion of insulin,–,–,–,–
